How the values were obtained:
lysozyme-COT 15 = molecular target: T1, lysozyme-COT 15 (Gallus gallus, UniProt P00698); assay: In vitro protein labeling of lysozyme-COT 15 with hydroxylamine 13 (in-gel fluorescence, intact MS); type: biochemical
T1 construct: purchased
Experimental: To test the bioorthogonality of the hydroamination reaction, in vitro protein labeling experiments were performed. Fluorophore-conjugated hydroxylamine 13 was first assembled from 6-carboxytetramethylrhodamine and hydroxylamine 12, which was in turn synthesized by nucleophilic displacement of iodide 11 with N-methylhydroxylamine hydrochloride (FIG. 4A). […] With both reaction components in hand, cyclooctyne-functionalized lysozyme 15 was treated with hydroxylamine 13 (0-200 μM) in PBS for 2 hours and analyzed by in-gel fluorescence (FIG. 4C). Labeling occurred in a concentration-dependent manner, and labeling was saturated at 100 μM hydroxylamine. […]
Lysozyme (CAS 12650-88-3, 50 mg/mL in deionized H2O) was diluted into phosphate-buffered saline (PBS, pH 7.4) to a final concentration of 10 mg/mL. […] The concentration of lysozyme was determined by A280 measurement in denaturing buffer (pH 7.0, 6 M guanidinium, 30 mM MOPS) on a UV-vis spectrophotometer. […]
A solution of lysozyme-COT 15 (5.0 μL, 0.15 mg/mL) was aliquoted into 6 samples. […] In-gel fluorescence was imaged with a Typhoon™ FLA 9500 (GE) at 532 nm with a photomultiplier tube (PMT) setting of 500 V. The experiment was carried out in triplicate (FIG. 8).
A solution of lysozyme-COT 15 (5.0 μL, 0.15 mg/mL) was aliquoted each into 6 samples. […] Samples were snap frozen under liquid nitrogen until all samples were ready to be loaded on the gel. […]

[1] = molecular target: T2, lysozyme-COT 15 in HEK293T cell lysate (Gallus gallus, UniProt P00698); assay: Protein labeling in the presence of HEK293T cell lysate; type: biochemical; conditions: 13 and lysozyme-COT 15, HEK293T cell lysate, PBS, 2 hours
T2 construct: purchased
T2 sequence (P00698 19-147): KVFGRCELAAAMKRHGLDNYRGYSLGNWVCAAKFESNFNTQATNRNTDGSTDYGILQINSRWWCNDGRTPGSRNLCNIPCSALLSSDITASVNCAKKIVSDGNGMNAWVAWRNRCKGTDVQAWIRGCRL
Experimental: There appeared to be no cross-reactivity between dialkylhydroxylamine and other proteins under these conditions.
Cell Culture: HEK-293T cells were cultured in Dulbecco's Modified Eagle Media (DMEM, Corning®) containing 10% fetal bovine serum (FBS, Sigma), 100 units/mL penicillin, and 0.1 mg/mL streptomycin (Sigma) in a humidified chamber at 37° C. with 5% CO2. Cells were passaged and dissociated with 0.25% trypsin, 0.1% ethylenediaminetetraacetic acid (EDTA) in Hanks' balanced salt solution (HBSS) (Corning®). Cells tested negative for […] by the MycoAlert™ PLUS Mycoplasma Detection Kit (Lonza) following the manufacturer's protocol.
Cell Lysate: Cell culture media was aspirated prior to lysis. Cells (10 cm dish, ˜80% confluency) was lysed by adding lysis buffer (1.0 mL, 4° C.; 150 mM NaCl, 50 mM Tris (pH 8.0), 1% triton X-100). After centrifugation (13,000×g) at 4° C., the supernatant was transferred to a clean tube, and the protein concentration was determined by BCA (bicinchoninic acid) protein assay (Pierce™ BCA Protein Assay Kit). […]
Protein Labeling Experiments: Lysozyme-COT 15 (0.75 μg, 5.0 μL, 0.15 mg/mL in deionized water) was aliquoted to form 4 samples. […] In-gel fluorescence was imaged with a Typhoon™ FLA 9500 (GE) at 532 nm with a photomultiplier tube (PMT) setting of 500 V. The experiment was carried out in triplicate.

T1 sequence (P00698 19-147): as above

SMILES: CN(O)CCOCCNC(=O)c1ccc2c(c1)C1(OC2=O)c2ccc(N(C)C)cc2Oc2cc(N(C)C)ccc21 [compound 13, 3′,6′-bis(dimethylamino)-N-(2-(2-(hydroxy(methyl)amino)ethoxy)ethyl)-3-oxo-3H-spiro[isobenzofuran-1,9′-xanthene]-6-carboxamide]
- time to in-gel fluorescence signal saturation (lysozyme-COT 15; 200 μM 13, quenched with N,N-diethylhydroxylamine (20 mM)): ≤ 1 h
- hydroxylamine concentration at which labeling was saturated (lysozyme-COT 15; lysozyme-COT 15, 0-200 μM 13, PBS, 2 hours, in-gel fluorescence): 100 µM
- labeling specificity in the presence of cell lysate [1]: lysozyme was labeled exclusively

Source: patent US20240165259A1, “BIOORTHOGONAL REACTION SUITABLE FOR CLICK/UNCLICK APPLICATIONS” (DANA-FARBER CANCER INSTITUTE, INC., priority 2021, published 2024)
